Assay results published in article PMC4168258 (Biochemical pharmacology, 2014).

How the values were obtained:
[1] = mouse, in vivo, po, 40 mg/kg
[2] = cited from earlier work
[3] = cited from earlier work; remark: listed apart in the source
CYP2C9 = CYP2C9 (Homo sapiens, UniProt P11712); experiment: Kinetic study of metabolite formation by recombinant CYP2C9; details: recombinant CYP2C9 incubations
CYP2C9, sequence (P11712 whole entry): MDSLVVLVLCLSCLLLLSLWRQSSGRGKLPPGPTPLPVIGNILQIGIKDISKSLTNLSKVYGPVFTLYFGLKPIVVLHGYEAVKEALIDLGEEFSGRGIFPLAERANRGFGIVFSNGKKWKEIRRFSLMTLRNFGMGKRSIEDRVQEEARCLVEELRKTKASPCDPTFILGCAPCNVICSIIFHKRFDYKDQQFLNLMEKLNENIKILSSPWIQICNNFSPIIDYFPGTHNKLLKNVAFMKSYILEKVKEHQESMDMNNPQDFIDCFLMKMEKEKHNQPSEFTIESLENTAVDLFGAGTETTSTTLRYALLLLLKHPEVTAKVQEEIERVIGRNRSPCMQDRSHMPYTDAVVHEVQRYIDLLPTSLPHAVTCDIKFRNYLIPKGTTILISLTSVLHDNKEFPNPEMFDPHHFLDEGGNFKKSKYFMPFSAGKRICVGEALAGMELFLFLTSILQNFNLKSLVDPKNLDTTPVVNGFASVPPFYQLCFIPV

For `O=C(C1CCC(O)CC1)N1CC(=O)N2CCc3ccccc3C2C1` (centres unmarked) [III, 4-OH PZQ], the “Source (matrix in which detected)” value [1] was “urine, feces”.

In the case of `O=C(C1CCCCC1)N1CC(=O)N2CCc3ccccc3[C@H]2C1` [(S)-PZQ], the “systemic levels compared with (R)-PZQ” value [2] is given as “higher”.

In the case of `O=C(C1CCCCC1)N1CC(=O)N2CCc3ccccc3[C@@H]2C1` [(R)-PZQ], the “side effects compared with racemic PZQ” value ([3]; single administration of 20 mg/kg vs 40 mg/kg racemic) is given as “fewer side effects”, the “activity compared with 40 mg/kg of racemic PZQ” value ([3]; single administration of 20 mg/kg) is given as “same activity” and the “production of metabolite V” value (CYP2C9) is given as “not detected”.
